Results on 1 compound are retold here after paper PMC6844382, “Design, synthesis and evaluation of quinolinone derivatives containing dithiocarbamate moiety as multifunctional AChE inhibitors for the treatment of Alzheimer’s disease” (Journal of Enzyme Inhibition and Medicinal Chemistry, 2019).

One data set can be described thus: in vitro. To be noted: PAMPA. A general note: In PAMPA a lipid-coated filter parts donor from acceptor wells.
The target in data set [1] is T1, hAChE (Homo sapiens, UniProt P22303). In words: Kinetic study of hAChE inhibition (Lineweaver-Burk). Type of data set: biochemical. On the set-up: Acetylcholinesterase (AChE, from electric eel and human erythrocytes); purchased Sigma-Aldrich (St. Louis, MO, USA). The protocol: To determine the inhibition mechanism of present compounds, compound 4c was taken for kinetic analysis by Ellman’s method. Three concentrations of 4c were selected for the study, and hAChE was chosen as enzyme source. Following a similar method mentioned above in enzyme inhibition assay, Lineweaver–Burk reciprocal plots were constructed by plotting 1/velocity against 1/[substrate] at varying concentrations of the substrate acetylthiocholine (0.05 – 0.5 mM). All measurements were performed in triplicate and data analysis was performed with Graph Pad Prism 4.03 software (San Diego, CA, USA).

Data set [2] deals with T2, AChE-induced Aβ1-42 aggregation (Electrophorus electricus, UniProt O42275).
T2 construct: eeAChE (from electric eel); purchased eeAChE: Sigma-Aldrich (St. Louis, MO, USA); Aβ1-42: Royobiotech Co., Ltd (Shanghai, China)
Nature of the data set: Inhibition of AChE-induced Aβ1-42 aggregation (ThT assay). Type of data set: biochemical. To be noted: inhibitor 100 μM; thioflavin-T fluorescence.
Description: 1, 1, 1, 3, 3, 3-hexafluoro-2-propanol (HFIP) and Thioflavin T (ThT) were obtained from TCI (Shanghai) Development. β-Amyloid1-42 (Aβ1-42), supplied as trifluoroacetate salt, and eeAChE were purchased from Royobiotech Co., Ltd (Shanghai, China) and Sigma-Aldrich (St. Louis, MO, USA), respectively. For co-incubation experiments, aliquots of Aβ1-42 peptide and AChE in presence or absence of the test compounds were incubated for 48 h at 37 °C. […] The percent inhibition of the AChE-induced Aβ aggregation due to the presence of inhibitor was calculated by the following formula: 100 – (IFi/IFo*100), where IFi and IFo are the fluorescence intensities obtained for Aβ1-42 aggregation in the presence and in the absence of inhibitor, respectively. Each assay was run in triplicate and each reaction was repeated at least three independent times.

Another data set deals with T3, eeAChE (Electrophorus electricus, UniProt O42275).
T3 construct: eeAChE (from electric eel); purchased Sigma-Aldrich (St. Louis, MO, USA); host or cells: electric eel
In words: In vitro inhibition of eeAChE (Ellman method). Type of data set: biochemical, electric eel.

The test system of data set [3] is human neuroblastoma SH-SY5Y cells. Nature of the data set: Cytotoxicity on SH-SY5Y cells (MTT assay). The note with it: 12.5–100 µM, 24 h. Type of data set: cell-based. The protocol:
The cytotoxicity of test compound on the human neuroblastoma SH-SY5Y cells was evaluated by MTT assay. The SH-SY5Y cells were grown in a 1:1 mixture of Eagle's minimum essential medium (EMEM) and ham's F-12 medium supplemented with 10% foetal bovine serum (FBS), 100 U/mL penicillin and […] streptomycin in 5% CO2 at 37 °C. For assay, cells were seeded into 96-well plates at a density of 10000 cells/well and treated with compound 4c for 24 h. After this treatment, 20 μL of MTT at 37 °C was added. Four hours later, the medium was removed, and 200 μL of DMSO was added to dissolve the formazan crystal formed. The absorbance was measured using a microculture plate reader with a test wavelength of 570 nm and a reference wavelength of 630 nm. Results are expressed as the mean ± SD of three independent experiments.
(Tetrazolium dyes change colour on reduction, which living cells bring about.)

The target in the next data set is T4, eqBuChE (Equus caballus, UniProt P81908).
T4 construct: eqBuChE (from equine serum); purchased Sigma-Aldrich (St. Louis, MO, USA); host or cells: equine serum
Nature of the data set: In vitro inhibition of eqBuChE (Ellman method). Type of data set: biochemical, equine. To be noted: read-out: eqBuChE Inhibition (%).

The target in data set [4] is T5, self-induced Aβ1-42 aggregation (Homo sapiens, UniProt P05067).
T5 construct: Aβ1-42 was obtained from Royobiotech Co., Ltd (Shanghai, China); purchased Royobiotech Co., Ltd (Shanghai, China)
Nature of the data set: Inhibition of self-induced Aβ1-42 aggregation (ThT assay). Type of data set: biochemical. The note with it: read-out: Inhibition of Aβ1–42 aggregation (%) Self-induced. The method, then:
The inhibitory activities of compounds 4c-f and 9a-b on self-induced Aβ1-42 aggregation were also measured by the ThT assay. HFIP and ThT were purchased from TCI (Shanghai) Development. Aβ1-42 was obtained from Royobiotech Co., Ltd (Shanghai, China). The monomeric Aβ1-42 samples were prepared by HFIP and diluted with a 50 mM phosphate buffer (pH 7.4) to give a 25 μM solution. The test compound was dissolved in DMSO (250 μM) for storage and needed not to be diluted prior to use. […]. Then, 200 μL of 5 μM ThT in 50 mM glycine-NaOH buffer (pH 8.0) was added, and the percent inhibition was calculated by the method same as that of AChE-induced Aβ1–42 experiment.

A further data set concerns Kunming mice. Nature of the data set: Acute oral toxicity study. It is filed as in vivo. To be noted: oral, 625, 1250 and 2500 mg/kg, observed 14 days. The protocol:
A total of 40 Kunming mice (half male and half female) were used to determine the acute toxicity of compound 4c[31]^,[32]. All mice weighting 18–25 g were obtained from Hunan SJA Laboratory Animal Co., Ltd. and randomly divided into corresponding groups. They were maintained under a 12 h light/dark cycle and allowed free access to tap water and standard laboratory chow. The room was maintained at temperature of 23 ± 2 °C with a relative humidity of 55 ± 5%. Prior to dosing, all animals were acclimated to this environment for 5 days. Compound 4c was suspended in 0.5% carboxymethyl cellulose sodium (CMC-Na) salt solution and given via oral administration to the divided experimental groups (0, 625, 1250 and 2500 mg/kg, n = 10 per group). After administration, animals were observed continuously for the first 4 h for any abnormal behavioural changes or deaths, then intermittently for the next 24 h, and occasionally thereafter for 14 days for the onset of any delayed effects. On the 14th day, all mice were sacrificed after being anaesthetized by ether, and the possible toxic damage to liver, heart and kidneys was examined macroscopically.

The target in data set [5] is T1, hAChE. In words: In vitro inhibition of hAChE (Ellman method). It is filed as biochemical. More on the design: Acetylcholinesterase (AChE, from electric eel and human erythrocytes); purchased Sigma-Aldrich (St. Louis, MO, USA); host or cells: human erythrocytes.
Description: (§1) The in vitro inhibitory activities of test compounds against AChE and BuChE were determined by the spectrophotometric method of Ellman[25]. […] For each assay, 160 μL of 1.5 mM DTNB, 50 μL of AChE (0.22 U/mL for eeAChE; 0.05 U/mL for hAChE) or eqBuChE (0.12 U/mL) were incubated with 10 μL of different concentrations of test compounds at 37 °C for 6 min.
For data set [6] the following is noted: from PAMPA-BBB Pe.
Description: Afterwards, the acceptor filter plate was carefully placed on the donor plate to make the coated membrane touch both donor solution and acceptor buffer. […] Pe was calculated by the following expression: Pe = {−VdVa/[(Vd + Va)At]}ln (1-drugacceptor/drugequilibrium), where Vd is the volume of donor well, Va is volume in acceptor well, A is the filter area, t is the permeation time, drugacceptor is the absorbance obtained in the acceptor well and drugequilibrium is the theoretical equilibrium absorbance. Each compound was analysed at five wavelengths in four wells at least three independent runs, and the results were expressed as mean ± SD.

Each structure is given as a SMILES string. “Also recorded” adds a separate entry of the source.

T1 sequence (P22303 32-617 isoform P22303-2 limits assumed): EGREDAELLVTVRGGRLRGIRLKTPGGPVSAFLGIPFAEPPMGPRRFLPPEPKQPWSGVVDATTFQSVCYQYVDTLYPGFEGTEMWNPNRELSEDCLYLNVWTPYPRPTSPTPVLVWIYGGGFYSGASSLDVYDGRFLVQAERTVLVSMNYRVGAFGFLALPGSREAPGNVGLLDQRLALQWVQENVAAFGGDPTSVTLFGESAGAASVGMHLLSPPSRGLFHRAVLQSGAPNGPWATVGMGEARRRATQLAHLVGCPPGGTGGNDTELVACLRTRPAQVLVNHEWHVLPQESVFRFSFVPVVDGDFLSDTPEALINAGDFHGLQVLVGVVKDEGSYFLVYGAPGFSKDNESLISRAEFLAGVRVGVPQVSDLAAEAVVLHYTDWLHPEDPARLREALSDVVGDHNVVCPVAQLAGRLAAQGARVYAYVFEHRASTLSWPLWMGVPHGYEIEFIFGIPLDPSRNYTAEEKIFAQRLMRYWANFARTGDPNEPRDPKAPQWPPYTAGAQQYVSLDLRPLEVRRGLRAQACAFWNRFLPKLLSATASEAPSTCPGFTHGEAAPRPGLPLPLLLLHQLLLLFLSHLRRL
T3 sequence (O42275 24-633): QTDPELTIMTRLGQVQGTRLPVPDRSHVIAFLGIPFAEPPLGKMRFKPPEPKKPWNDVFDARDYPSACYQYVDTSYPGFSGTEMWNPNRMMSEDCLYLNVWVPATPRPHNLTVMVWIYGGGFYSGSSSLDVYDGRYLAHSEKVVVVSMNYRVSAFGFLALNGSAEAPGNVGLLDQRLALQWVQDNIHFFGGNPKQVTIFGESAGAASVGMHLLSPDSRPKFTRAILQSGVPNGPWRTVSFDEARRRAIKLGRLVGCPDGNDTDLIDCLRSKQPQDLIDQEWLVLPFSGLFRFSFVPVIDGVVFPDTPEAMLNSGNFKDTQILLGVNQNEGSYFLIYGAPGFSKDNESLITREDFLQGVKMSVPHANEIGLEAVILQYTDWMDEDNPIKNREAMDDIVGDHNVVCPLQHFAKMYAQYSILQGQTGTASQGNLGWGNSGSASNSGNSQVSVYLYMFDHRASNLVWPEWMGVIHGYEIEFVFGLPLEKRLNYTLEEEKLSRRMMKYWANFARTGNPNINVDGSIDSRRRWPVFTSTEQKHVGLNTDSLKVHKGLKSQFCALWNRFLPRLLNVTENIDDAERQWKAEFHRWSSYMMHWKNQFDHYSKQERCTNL
T5 sequence (P05067 672-713): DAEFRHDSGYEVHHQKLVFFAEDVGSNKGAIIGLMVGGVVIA
T4 sequence (P81908 whole entry): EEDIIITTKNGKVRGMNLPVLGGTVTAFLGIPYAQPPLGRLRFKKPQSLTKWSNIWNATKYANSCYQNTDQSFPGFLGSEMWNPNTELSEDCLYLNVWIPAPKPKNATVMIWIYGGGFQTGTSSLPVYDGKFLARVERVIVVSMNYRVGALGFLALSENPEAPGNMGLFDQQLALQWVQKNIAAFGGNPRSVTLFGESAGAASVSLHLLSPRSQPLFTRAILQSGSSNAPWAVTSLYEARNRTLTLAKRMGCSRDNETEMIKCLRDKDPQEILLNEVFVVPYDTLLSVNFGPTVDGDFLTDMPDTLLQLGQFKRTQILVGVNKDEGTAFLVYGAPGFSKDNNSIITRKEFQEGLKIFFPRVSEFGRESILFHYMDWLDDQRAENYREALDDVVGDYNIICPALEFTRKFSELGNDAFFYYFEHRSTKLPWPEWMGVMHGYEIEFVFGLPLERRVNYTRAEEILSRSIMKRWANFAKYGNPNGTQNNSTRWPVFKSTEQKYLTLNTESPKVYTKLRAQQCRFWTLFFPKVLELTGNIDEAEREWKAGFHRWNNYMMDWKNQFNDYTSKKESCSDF
T2 sequence (O42275 24-633): as the sequence (O42275 24-633) above
Description for eeAChE: as §1
Description for eqBuChE: as §1

Turning to `O=c1ccc2ccc(OCCCCSC(=S)N3CCCCC3)cc2[nH]1` [4c, 4-((2-oxo-1,2-dihydroquinolin-7-yl)oxy)butyl piperidine-1-carbodithioate], the Papp (usually a coefficient for how fast a substance crosses the barrier) at 18 h, 25 μg/mL in the data set “in vitro” came to 8.91 ± 2.03 ×10⁻⁶ cm/s. For the same compound, on hAChE [1] (Lineweaver-Burk plots, hAChE, 0.1, 0.2, 0.4 μM inhibitor), the type of inhibition result is “mixed-type inhibitor; also recorded: mixed-type inhibition”. On hAChE [1] (replots of slope versus concentration of 4c, hAChE, read-out: competitive inhibition constant Ki), the inhibitory constant (Ki) (commonly the equilibrium dissociation constant of an inhibitor or competing ligand from its target) was found to be 225 nM. 100 µM produced 29 ± 2.06% inhibition in [2]. The IC50 (as a rule, the concentration that gives 50% inhibition) against eeAChE worked out at 220 ± 30 nM; against hAChE [5] it was 160 ± 20 nM. In addition, on eeAChE (ratio of eeAChE IC50 values), the “times more potent than galanthamine on AChE” value came out at 7.5 times. In data set [3], the “effect on cell viability (cytotoxicity)” value is “did not show a significant effect on cell viability; also recorded: negligible toxicity; also recorded: no toxicity”. Further, the inhibition (as a rule, how much of the control response was suppressed) at 10 µM at eqBuChE was 45.4 ± 8.34%. In addition, the inhibition at 25 µM in [4] came out at 30.7 ± 6.54%. Further, in the data set with Kunming mice, the acute toxicity result is listed as “no evident toxicity signs; also recorded: no significant acute toxicity; also recorded: well tolerated”. Moreover, the “fold more potent on hAChE than tacrine” value on hAChE [5] (ratio of hAChE IC50 values) is reported as ~3 fold. For the same compound, in data set [6], the “Prediction of penetration into CNS” value is listed as “CNS+ (CNS + is predicted as high BBB permeation with Pe (×10^6 cm/s) > 3.33)”.
